According to ChEMBL document CHEMBL1157539, “Thousands of chemical starting points for antimalarial lead identification” (Nature, 2010):

Test system: Plasmodium falciparum
Test: GSK_TCMDC: Inhibition of Plasmodium falciparum 3D7 in whole erythrocytes, using parasite LDH activity as an index of growth.
Type: functional, organism-based
Conditions: Plasmodium falciparum, 3D7

SMILES: COc1ccc(Nc2nc(N/N=C/c3ccc(O)cc3)nc(Nc3ccc([N+](=O)[O-])cc3)n2)cc1
- XC50: 1120 nM

SMILES: O=[N+]([O-])c1ccc(Nc2nc(N/N=C/c3cc(Cl)cc(Cl)c3O)nc(Nc3ccccc3)n2)cc1
- XC50: 671 nM

SMILES: CCN(CC)CCN(Cc1ccc(-c2ccc(C(F)(F)F)cc2)cc1)C(=O)Cn1c(CCc2cc(F)c(F)cc2F)nc(=O)c2ccccc21
- XC50: 718 nM

SMILES: CCN(CC)CCN(Cc1ccc(-c2ccc(C(F)(F)F)cc2)cc1)C(=O)Cn1c(CCc2ccc(F)c(F)c2F)nc(=O)c2cccnc21
- XC50: 1130 nM

SMILES: CC(C)N1CCC(N(Cc2ccc(-c3ccc(Cl)cc3)cc2)C(=O)Cn2c(CCc3cccc(F)c3F)nc(=O)c3ccccc32)CC1
- XC50: 944 nM

SMILES: COc1ccc(Nc2ncc3c(-c4cccc(NC(=O)Cc5ccc(O)cc5)c4)c[nH]c3n2)cc1OC
- XC50: 570 nM

SMILES: COc1ccc(Cl)cc1N1CCN(CCCNC(=O)c2ccc(-c3nc4ccc(C(F)(F)F)cc4[nH]3)c(C)c2)CC1
- XC50: 762 nM

SMILES: COc1cc(Cc2cnc(N)nc2N)cc(OCC(C)(C)C(=O)O)c1OC
- XC50: 1110 nM

SMILES: COc1ccc2c(CCNc3nc(SC)ncc3C(=O)NCCc3ccc(F)cc3)c[nH]c2c1
- XC50: 762 nM

SMILES: CC(=O)c1sc(Cc2nc3ccccc3s2)nc1C
- XC50: 1070 nM

SMILES: O=C(Nc1ccccc1)c1ccc(-c2cc3ccncc3cc2OC2CCNCC2)s1
- XC50: 654 nM

SMILES: COc1ccc(NC(=O)/C=C/c2ccccc2Cl)cc1OCCN1CCN(c2ccncc2)CC1
- XC50: 728 nM

SMILES: Cc1cc(N)nc2cc(CNCCc3ccccc3Br)ccc12
- XC50: 129 nM

SMILES: CN1CCN(c2ccnc3cc4ccccc4cc23)CC1
- XC50: 947 nM

SMILES: CC1CN(CCCn2c3ccccc3c3ccc(C(=O)CCCN(C)C)cc32)CC(C)N1 (configuration not stated)
- XC50: 809 nM

SMILES: CN(C)CCNCc1nc(-c2ccc3c(Nc4ccc(Cl)cc4F)ccnc3c2)cs1
- XC50: 809 nM

SMILES: COc1ccc(S(=O)(=O)Nc2ccc(C(=O)NCc3ccccc3C(F)(F)F)cc2)cc1N1CCN(CC2CC2)CC1
- XC50: 1150 nM

SMILES: CC(=O)NC(c1cccs1)c1cc(Cl)c2cccnc2c1O (configuration not stated)
- XC50: 317 nM

SMILES: COc1cccc(NC(=O)NCCNc2ccnc(Nc3ccc(F)cc3)n2)c1
- XC50: 917 nM

SMILES: O=C(/C=C/c1cccc2c1OCO2)Nc1ccnc2ccncc12
- XC50: 895 nM

SMILES: Cc1cc(N2CCCC2)nc(Nc2ccc(NC(=O)c3ccccc3C)cc2)n1
- XC50: 724 nM

SMILES: CN1CCCN(Cc2cccc(-c3cccc(NC(=O)c4cccc(C#N)c4)c3)c2)CC1
- XC50: 818 nM

SMILES: CO/C(=C\C=C\c1cc2cc(Cl)c(Cl)cc2[nH]1)C(=O)NCCCN(C)CCN(C)c1ccccc1
- XC50: 828 nM

SMILES: CCOC(=O)c1c(NC(=O)c2ccccc2)sc2c(O)c(CN(CC)CC)ccc12
- XC50: 969 nM

SMILES: Cn1ccc(C(=O)Nc2ccc3c(c2)CN(Cc2ccc(N4CCCC4)o2)CCC3)n1
- XC50: 1310 nM

SMILES: O=C(Nc1ccc(Cl)c(Cl)c1)N1CCC(CN2CCC(c3c[nH]c4ccccc34)CC2)CC1
- XC50: 295 nM

SMILES: CC1CN(c2cnn(C/C=C/c3ccc(NC(=O)c4ccc(Cl)cc4)cc3)c(=O)c2Cl)CC(C)N1 (configuration not stated)
- XC50: 853 nM

SMILES: O=C(Nc1ccc(C(F)(F)F)cc1)Nc1cccc([N+](=O)[O-])c1
- XC50: 865 nM

SMILES: O=C(Cc1cccc(Cl)c1)Nc1cccc(-c2c[nH]c3nc(Nc4ccccc4)ncc23)c1
- XC50: 678 nM

SMILES: O=c1cc(NCCCNCc2ccc(C(F)(F)F)c(F)c2)[nH]c2ccccc12
- XC50: 1190 nM

SMILES: Oc1ccc(-c2ccccc2)cc1CN1CCCCC1
- XC50: 903 nM

SMILES: CN1CCC(N2CCN(Cc3ccc(-c4ccc(-c5nc6ccccc6[nH]5)s4)cc3)CC2)CC1
- XC50: 140 nM

SMILES: O=C1C(c2ccccc2)=C(Nc2ccc([N+](=O)[O-])cc2)c2ccccc21
- XC50: 871 nM

SMILES: Cc1onc(-c2ccc(Cl)cc2)c1-c1ccnn1S(=O)(=O)c1ccc(Cl)cc1
- XC50: 711 nM

SMILES: CC(O)C1CCCCN1C(=O)c1ccc(-c2ccc(-c3nc4ccccc4[nH]3)s2)cc1 (configuration not stated)
- XC50: 966 nM

SMILES: Fc1cc(Cl)ccc1Nc1ccnc(Nc2ccc3cn[nH]c3c2)n1
- XC50: 737 nM

SMILES: Fc1ccc2c(NN=Cc3ccccc3F)ccnc2c1
- XC50: 562 nM

SMILES: COc1ccc2nccc([C@@H](O)CN3CCC(NCc4cc5cccnc5[nH]4)CC3)c2n1
- XC50: 956 nM

SMILES: Cc1cc(N[C@@H](Cc2ccccc2)C(=O)Nc2ccccc2)nc(NCC2CCCCC2)n1
- XC50: 761 nM

SMILES: COc1ccc(CC2(c3ccc(F)cc3)N=C(N)N(CCCc3cccnc3)C2=O)cc1 (configuration not stated)
- XC50: 668 nM

SMILES: CCOc1ccc(-c2noc(-c3c[nH]c4ccccc4c3=O)n2)cc1
- XC50: 205 nM

SMILES: COc1ccccc1-c1ccc(CNC(=O)C(CN2CCN(C)CC2)c2ccccc2)cc1 (configuration not stated)
- XC50: 1260 nM

SMILES: O=C(C=Cc1ccc(F)c(Br)c1)N1CCC(CN2CCC(c3c[nH]c4ccccc34)CC2)CC1
- XC50: 745 nM

SMILES: Cc1cccc2nc(-c3ccc(-c4cccc(NC(=O)c5cnn6cccnc56)c4)cc3)[nH]c12
- XC50: 872 nM

SMILES: CCC(C)CN1CCN(c2cc(NC(=O)c3cccs3)ccn2)C(C)C1 (configuration not stated)
- XC50: 997 nM

SMILES: O=C(Nc1cc(Cl)cc(Cl)c1)c1cc(Cl)c(=O)n(Cc2ccc(Cl)cc2)c1
- XC50: 863 nM

SMILES: O=C(NC1CC1)c1ccc(N2CCC(c3ccccc3)CC2)nc1
- XC50: 1110 nM

SMILES: O=C(Nc1cccc(-c2ccc(-c3nc4cc(F)ccc4[nH]3)cc2)c1)c1ccoc1
- XC50: 962 nM

SMILES: c1ccc(CNCc2cccc(-c3ccc(-c4nc5ccccc5[nH]4)cc3)c2)cc1
- XC50: 822 nM

SMILES: Cc1ccccc1C1CCN(C2CCC(NC(=O)/C=C/c3ccc(F)c(F)c3)CC2)CC1 (configuration not stated)
- XC50: 945 nM

SMILES: COc1ccc2nccc([C@@H](O)CN3CCC(NCc4cc5cc([N+](=O)[O-])ccc5[nH]4)CC3)c2c1
- XC50: 117 nM

SMILES: O=C(NCCc1ccccc1)[C@H](Cc1ccccc1)Nc1ccnc(NCC2CCCCC2)n1
- XC50: 1380 nM

SMILES: NCc1ccc(-c2ccccc2CNC2CCN(Cc3ccccc3)CC2)cc1
- XC50: 765 nM

SMILES: COc1ccc(Cc2c(C)nc3nc(N)nc(N)c3c2C)cc1OC
- XC50: 912 nM

SMILES: CCOC(=O)c1ccc(N2CCN(c3cc(Cl)ccc3C)CC2)c(NC(=O)Nc2ccc(Cl)c(Cl)c2)c1
- XC50: 584 nM

SMILES: Cc1cccc2nc(-c3ccc(-c4ccc(NC(=O)Nc5ccsc5)cc4)s3)[nH]c12
- XC50: 113 nM

SMILES: Cc1sc(C)c(C(F)(F)F)c1CNCCCNc1cc(=O)c2ccccc2[nH]1
- XC50: 1100 nM

SMILES: CCCCCCCCOc1ccc(N2C(N)=NC(N)=NC2(C)C)cc1
- XC50: 502 nM

SMILES: NS(=O)(=O)c1cccc(Nc2nc(N[C@@H]3CCNC3)nc3cc[nH]c(=O)c23)c1
- XC50: 940 nM

SMILES: c1ccc(Oc2ccc(Nc3nc(NCCc4c[nH]cn4)nc(NC4CCCC4)n3)cc2)cc1
- XC50: 1030 nM

SMILES: OC(c1ccc2ccccc2c1)C1CN(CCc2ccccc2)CCC1(O)c1ccccc1 (configuration not stated)
- XC50: 554 nM

SMILES: CCCCN(Cc1cnccc1-c1ccc(Br)cc1)c1ccc(C(O)(C(F)(F)F)C(F)(F)F)cc1
- XC50: 1060 nM

SMILES: CCCNCc1ccc(-c2ccc(CN(Cc3cnc(C)cn3)C(=O)CC#N)cc2)nc1
- XC50: 1220 nM

SMILES: N[C@@H](CCN1CCC(c2cccc(O)c2)CC1)Cc1ccc(F)c(F)c1
- XC50: 1110 nM

SMILES: O=C(Nc1cccc(-c2nn3ccccc3c2-c2ccnc(Nc3cccc(C(F)(F)F)c3)n2)c1)c1c(F)cccc1F
- XC50: 627 nM

SMILES: O=C(NC1CCN(c2ccnc3cc(Cl)ccc23)C1)c1cccc(F)c1 (configuration not stated)
- XC50: 179 nM

SMILES: OC(CNCc1cccc(Oc2ccc(Cl)cc2)c1)c1cc(C(F)(F)F)cc(C(F)(F)F)c1 (configuration not stated)
- XC50: 255 nM

SMILES: O=S(=O)(NCCN1CCCC1)c1cccc(-c2ccc(CNCc3ccsc3)cc2)c1
- XC50: 804 nM

SMILES: c1ccc2[nH]c(CN(Cc3nc4ccccc4[nH]3)Cc3nc4ccccc4[nH]3)nc2c1
- XC50: 668 nM

SMILES: O=C1CCCN1CCCNCc1cccc(-c2cccc(-c3nc4cc(C(F)(F)F)ccc4[nH]3)c2)c1
- XC50: 299 nM

SMILES: Cc1cc(N(C)CCCN2CCCCC2)nc(Nc2ccc(Cl)cc2)n1
- XC50: 188 nM

SMILES: c1cc2[nH]c(CCCc3nc4cc(C5=N[C@H]6CCCC[C@H]6N5)ccc4[nH]3)nc2cc1C1=N[C@@H]2CCCC[C@@H]2N1
- XC50: 1240 nM

SMILES: Cc1cc(N[C@@H](Cc2ccccc2)C(=O)NCc2cccc(F)c2)nc(NCc2ccccc2C)n1
- XC50: 981 nM

SMILES: Cc1ccc(S(=O)(=O)Nc2ccc(Nc3nccc(Nc4cccc5[nH]ncc45)n3)cc2)cc1
- XC50: 958 nM

SMILES: CO/C(=C\C=C\c1cc2cc(Cl)c(Cl)cc2[nH]1)C(=O)NCCCN1CCN(c2cccc(CCO)c2)CC1
- XC50: 716 nM

SMILES: NS(=O)(=O)c1cccc(-c2ccc3c(O)ncnc3c2)c1
- XC50: 946 nM

SMILES: N#Cc1cccc(Nc2cc(C(F)(F)F)nc(Nc3ccccc3)n2)c1
- XC50: 1440 nM

SMILES: Fc1ccc2c(NN=CC=Cc3ccccc3)ccnc2c1
- XC50: 779 nM

SMILES: CN1CCN(c2ccnc3ccc(NC(=O)Nc4ccc(-c5ccncc5)c(C(F)(F)F)c4)cc23)CC1
- XC50: 823 nM

SMILES: Cc1nnc2c(NC(=O)NC3CCCC3)cc3cc(-c4ccc(CN5CCCCC5)cc4)ccc3n12
- XC50: 948 nM

SMILES: O=C(NCCN1CCCC1)c1cccc(-c2ccc(-c3nc4cc(F)ccc4[nH]3)cc2)c1
- XC50: 722 nM

SMILES: O=C(/C=C/c1ccc(Cl)c(Cl)c1)NCCCCCCN1CCCN(C(=O)Nc2cccc(Cl)c2)CC1
- XC50: 855 nM

SMILES: O=C(Nc1cccc(-c2cccc(-c3nc4cc(F)ccc4[nH]3)c2)c1)c1csnn1
- XC50: 788 nM

SMILES: CC(C)Oc1ccc(C=CC(=O)Nc2noc3ccccc23)cc1
- XC50: 288 nM

SMILES: Cc1ccc(-n2cc(CNCCc3nc(C)c[nH]3)c(-c3ccc(F)cc3)n2)cc1
- XC50: 1510 nM

SMILES: O=C(Nc1cccc(-c2cccc(-c3nc4cc(F)ccc4[nH]3)c2)c1)c1ccoc1
- XC50: 333 nM

SMILES: Cc1ccc2c(c1)NCC21CCN(C[C@@H](O)C2CCN(c3cc(C#N)ccn3)CC2)CC1C (some centres not stated)
- XC50: 606 nM

SMILES: Cc1ccc(C)c(-n2c(SCC(=O)Nc3ccc(C(N)=O)cc3)nnc2-c2cccc(Cl)c2)c1
- XC50: 845 nM

SMILES: CN1CCN(Cc2ccc(-c3cc4nccc(Nc5ccc(Oc6ccccc6)cc5)c4cc3Cl)o2)CC1
- XC50: 979 nM

SMILES: CC1CCCN(C(=O)c2cc(-c3ccccn3)nc3c(Cl)cccc23)C1 (configuration not stated)
- XC50: 1080 nM

SMILES: CC1CCN(CC[C@H]2CCCN2S(=O)(=O)c2cccc(NC(=O)c3ccc(-c4ccc(Cl)cc4)o3)c2)CC1
- XC50: 693 nM

SMILES: Fc1ccc(OC2CN(c3nccc(NCc4ccccc4Cl)n3)C2)cc1
- XC50: 898 nM

SMILES: O=C(Nc1ccc(-n2ccc(C(F)(F)F)n2)cc1)c1cccs1
- XC50: 1070 nM

SMILES: N#Cc1ccc2c(c1)CCN(CCC1CCC(NC(=O)/C=C/c3ccc(Cl)c(Cl)c3)CC1)CC2 (configuration not stated)
- XC50: 422 nM

SMILES: COc1cc2c(cc1OC)CN(CCCCNC(=O)c1ccc(NC(=O)c3cc(Cl)cc(Cl)c3)cc1)CC2
- XC50: 778 nM

SMILES: OC1CCCN(Cc2cccc(-c3ccc(-c4nc5cc(F)ccc5[nH]4)cc3)c2)C1 (configuration not stated)
- XC50: 780 nM

SMILES: COc1ccccc1NC(=O)Nc1ccc(-c2cccc(-c3nc4ccccc4[nH]3)c2)cc1
- XC50: 641 nM
